9 compounds from PubChem BioAssay (NCI) can be followed below.

Values joined by “and” are separate entries in the source; they are usually repeats but may differ in a detail not shown here. Equal entries are not always repeated.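 Grown in 96-well plates, cells were treated for 48 hours with each compound at five concentrations. Insufficient inhibition: endpoint recorded as highest concentration tested. The concentration for 50% growth inhibition is given as GI50. Definition used: TGI = concentration required for complete inhibition of growth.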 Where a SMILES comes first, the peptide text is derived from it. [ ]: non-standard residue; d: D form. The star is where a group is joined. ξ: configuration not given here. X16 = COC1=CC(=O)N(C(=O)C(O*)C(C)C)C1Cc1ccccc1; ξNMe2Val = CC(C)C(C(=O)*)N(C)C; NMeV = CN[CH](C(=O)O)C(C)C

Among the test systems are M19-MEL melanoma; DMS 273 small cell lung; DMS 114 small cell lung; P388/ADR leukemia; SNB-78 CNS; DLD-1 colon; MDA-MB-435; HS 578T breast; DU-145 prostate; MDA-N; PC-3 prostate.
Holding throughout (assay): NCI tumour cell line growth inhibition, 48 h

As for `Nc1cc2c(cc1[N+](=O)[O-])[nH]c1c(-c3ccccc3)nccc12`, the TGI is 42.7 µM in the assay with M19-MEL melanoma; 48.9 µM with DMS 273 small cell lung; 35.7 µM with DMS 114 small cell lung; 44.5 µM with P388/ADR leukemia; over 58.2 µM in the assay with SNB-78 CNS; over 76.5 µM in the assay on DLD-1 colon.
Regarding `COC1=CC(=O)N(C(=O)C(OC(=O)C2CCCN2C(=O)C2CCCN2C(=O)C(C(C)C)N(C)C(=O)C(NC(=O)C(C(C)C)N(C)C)C(C)C)C(C)C)C1Cc1ccccc1` (stereo not drawn) (ξNMe2Val-V[NMeV]PP-X16; configuration not given here), the GI50 in the assay with M19-MEL melanoma, in the assay with DMS 273 small cell lung, in the assay on DMS 114 small cell lung, with SNB-78 CNS and with DLD-1 colon was under 0.0004 µM each time. Besides, the TGI was over 4 µM in the assay on M19-MEL melanoma; under 0.0004 µM in the assay on DMS 273 small cell lung; 0.00601 µM and 0.00714 µM in the assay with DMS 114 small cell lung; 0.000576 µM with MDA-MB-435; 0.556 µM in the assay with P388/ADR leukemia; 0.000903 µM with HS 578T breast. Moreover, the TGI is 0.00455 µM with DU-145 prostate, 0.000275 µM in the assay with MDA-N, 0.811 µM in the assay on SNB-78 CNS and over 4 µM in the assay on DLD-1 colon.
With `CC1(C)CCc2c(cc3c(c2O)CCC(C)(C)O3)O1`, the TGI in the assay with HS 578T breast, with DU-145 prostate, with MDA-N and in the assay with PC-3 prostate was over 100 µM each time.
On to `CCOc1ncn(-c2ccc(NC(=S)Nc3cccc(O)c3)cc2)n1`, for which the TGI with MDA-MB-435, with DU-145 prostate, with MDA-N and with PC-3 prostate was over 100 µM in each case.
In the case of `ClCCN(CCCl)Cc1ccc(Nc2ccnc3cc(Cl)ccc23)cc1`, in the assay with HS 578T breast, the GI50 is 2.92 µM and the TGI was found to be 8.38 µM. In the assay on PC-3 prostate, the GI50 is 1.57 µM and the TGI came to 5.71 µM.
`COc1ccc2c(O)c3[n+](cc2c1OC)CCc1cc2c(cc1-3)OCO2`: the TGI in the assay with MDA-MB-435 is 69.3 µM; with HS 578T breast, over 100 µM; in the assay on DU-145 prostate, over 100 µM; in the assay on MDA-N, over 100 µM; in the assay with PC-3 prostate, over 100 µM.
`C=C/C(C)=C/[C@H](C)C(=O)C[C@H](O)CC1CC(=O)NC(=O)C1`: the TGI in the assay on M19-MEL melanoma, in the assay on DMS 273 small cell lung, in the assay with DMS 114 small cell lung, with P388/ADR leukemia, with SNB-78 CNS and in the assay with DLD-1 colon was over 100 µM throughout.
Consider `Cc1ccc(OP2(=O)Oc3ccc4ccccc4c3CN2c2ccc(Cl)cc2)cc1C` (stereo not drawn), for which the TGI in the assay with M19-MEL melanoma, in the assay on DMS 273 small cell lung, in the assay with DMS 114 small cell lung, in the assay with P388/ADR leukemia, with SNB-78 CNS and in the assay on DLD-1 colon was over 100 µM throughout.
With `COC[C@H]1C(=O)NCC(=O)N2NCCC[C@H]2C(=O)N(O)[C@H](C)C(=O)O[C@@H](C(C)C)[C@H](NC(=O)[C@](C)(O)[C@]2(O)CC[C@@H](CC(C)C)[C@H](C)O2)C(=O)N2NCCC[C@@H]2C(=O)N1O`, the GI50 in the assay on MDA-MB-435 was under 0.01 µM; in the assay with HS 578T breast, under 0.01 µM; in the assay with DU-145 prostate, under 0.0114 µM; in the assay with PC-3 prostate it was 0.0174 µM. The TGI came to 0.0128 µM with MDA-MB-435, 0.0244 µM in the assay on HS 578T breast, 0.0232 µM in the assay with DU-145 prostate and 0.0326 µM in the assay on PC-3 prostate.
